In data set [1] the test system is TPMT wildtype lymphoblastoid cells. Put plainly: cells. To be noted: Homo sapiens, Lymphoblastoid cell, 72 h, read-out: Mean percentage viable cells after 72 h.
For data set [2], the system named is childhood ALL. The note with it: CCG-1952, cited from earlier work; for event-free survival: at 5 years, p = 0.02.
Data set [3] relates to patients with childhood ALL. To be noted: cited from earlier work; for central nervous system (CNS) relapse: COALL-92, maintenance, p = 0.053.
The conditions of data set [4]: in vivo; cited from earlier work.
Data set [5] concerns childhood ALL. The note with it: UK MRC ALL 97, cited from earlier work.

Consider `Nc1nc2nc[nH]c2c(=S)[nH]1` [TG, 6-thioguanine], for which, in data set [1], the viability at 0.0625 µM is 81.2%, the viability at 0.125 µM is 75.9% and the viability at 0.25 µM is 71.3%. In data set [2], the event-free survival is given as 85.1% and the “patients with hepatic VOD-like symptoms” value is recorded as “approximately 20%”. The “central nervous system (CNS) relapse” value in data set [3] is given as 3.4%. Besides, in data set [3] (COALL-92), the Treatment interruptions is on record as 4.7 % of maintenance treatment weeks; the “Treatment interruptions, higher rate compared to the 6-mercaptopurine arm” value is given as 1.7 fold; the “incidence of thrombocytopenia (< 100 x 10^9/l) without evidence of leukocytopenia (<1 x 10^9/l), higher compared to the 6-mercaptopurine arm” value was 7.5 fold. Moreover, the half lives in data set [4] was around 90 min. Besides, the “patients who developed non-fatal hepatic toxicity with features of veno-occlusive disease (VOD)” value in data set [5] is on record as 11%. In addition, the “isolated disease recurrence in the CNS, odds ratio” value in data set [5] (vs 6-mercaptopurine, 95% confidence interval 0.30 - 0.92) is given as 0.53. Moreover, the “risk of death in remission, odds ratio” value in data set [5] (vs 6-mercaptopurine, 95% confidence interval 1.20 - 4.14, mainly due to infections) is on record as 2.22.

As for `Sc1ncnc2nc[nH]c12` [MP, 6-mercaptopurine], in data set [1], the viability at 0.125 µM was 89.3%, the viability at 0.25 µM was 84.7%, the viability at 0.5 µM was 79.8% and the viability at 1 µM amounted to 73.1%. Further, the event-free survival in data set [2] is reported as 77.1%. Besides, the “central nervous system (CNS) relapse” value in data set [3] was 0.8%. Further, the Treatment interruptions in data set [3] (COALL-92) was 2.8 % of maintenance treatment weeks. Besides, the half lives result in data set [4] was “approximately 21 minutes”. Moreover, the “patients who developed non-fatal hepatic toxicity with features of veno-occlusive disease (VOD)” value in data set [5] is reported as “less than 2%”.
